Type in all cases: functional
Test [1] relates to Staphylococcus aureus. Kind of test: Antibacterial activity against Staphylococcus aureus.
The subject of test [2] is Staphylococcus aureus. Kind of test: Inhibition of coupled transcription/translation in Staphylococcus aureus at 100 uM. As to conditions: for IC50 / inhibition at 100 µM: Staphylococcus aureus.
For test [3], the system named is Staphylococcus aureus. Kind of test: Inhibition of coupled transcription/translation in Staphylococcus aureus at 30 uM.
Where [4] appears, read: Staphylococcus aureus, read-out: MIC.

Structures are written as SMILES. Converted amounts (≈) assume the structure as drawn.

The term MIC denotes the lowest concentration found to suppress growth. What is called IC50 is the midpoint of a concentration-inhibition curve. Higher therefore signals a need for much substance. Usually inhibition stands for the drop in the measured response relative to a control, in per cent. The low end stands for little suppression, the high end for strong suppression. As for `CC1(c2ccccc2)CCCN(S(=O)(=O)c2ccc(C(=O)Nc3ccc(Br)cc3C(=O)O)cc2)C1` (stereo unspecified), the MIC in the test with Staphylococcus aureus [1] (setting [4]) stood at 16 µg/mL (≈ 28.7 µM). In the test with Staphylococcus aureus [2], the 50% inhibitory concentration (IC50) turned out to be 30 µM and at 100 µM the inhibition was 96%.
As for `CC1(C)Cc2ccccc2N1S(=O)(=O)c1ccc(C(=O)Nc2ccc(Br)cc2C(=O)O)cc1`, the MIC with Staphylococcus aureus [1] (setting [4]) was 2 µg/mL (≈ 3.78 µM). Further, in the test on Staphylococcus aureus [2], the half-inhibitory concentration (IC50) stood at 55 µM and the inhibition at 100 µM came out at 87%.
As to `CCCN(CCC)S(=O)(=O)c1ccc(C(=O)Nc2ccc(Br)cc2C(=O)O)cc1`, the minimum inhibitory concentration (MIC) in the test on Staphylococcus aureus [1] (setting [4]) was 8 µg/mL (≈ 16.5 µM). In addition, in the test with Staphylococcus aureus [2], testing at 100 µM gave an inhibition of 61%.
The like results for `O=C(Nc1cc(F)c(F)cc1C(=O)O)c1ccc(S(=O)(=O)Nc2cccc(C(F)(F)F)c2)cc1` were, in that order, greater than 128 µg/mL and 55%.
The like results for `CCCN(c1ccccc1)S(=O)(=O)c1ccc(C(=O)Nc2ccc(Br)cc2C(=O)O)cc1` were, in that order, 16 µg/mL (≈ 30.9 µM) and 80%.
The like results for `CCCN(CCC)S(=O)(=O)c1ccc(C(=O)Nc2ccc3ccccc3c2)cc1` were, in that order, greater than 128 µg/mL and 10%.
With `O=C(Nc1ccc(Br)cc1C(=O)O)c1ccc(S(=O)(=O)N2CCCC23CCC(O)CC3)cc1` (stereo unspecified), the minimum inhibitory concentration (MIC) in the test on Staphylococcus aureus [1] (setting [4]) amounted to 8 µg/mL (≈ 14.9 µM). Besides, the inhibition at 100 µM in the test with Staphylococcus aureus [2] turned out to be 22%.
On to `N#Cc1cccc(NS(=O)(=O)c2ccc(C(=O)Nc3ccc(Br)cc3C(=O)O)cc2)c1`, for which, in the test on Staphylococcus aureus [1] (setting [4]), the MIC came to 64 µg/mL (≈ 128 µM). Also, in the test with Staphylococcus aureus [2], the inhibition at 100 µM turned out to be 30%.
In the case of `CCCN(c1ccccc1)S(=O)(=O)c1ccc(C(=O)Nc2ccc(I)cc2C(=O)O)cc1`, in the test on Staphylococcus aureus [1] (setting [4]), the minimal inhibitory concentration (MIC) was 16 µg/mL (≈ 28.3 µM). Also, the inhibition at 100 µM with Staphylococcus aureus [2] worked out at 90%.
The like results for `O=C(Nc1ccc(Br)cc1C(=O)O)c1ccc(S(=O)(=O)N2CCC(Nc3ccccc3)CC2)cc1` were, in that order, 32 µg/mL (≈ 57.3 µM) and 62%.
`O=C(Nc1ccc(Br)cc1C(=O)O)c1ccc(S(=O)(=O)N2CCc3ccc(Cl)cc32)cc1` returned a minimum inhibitory concentration (MIC) against Staphylococcus aureus [1] of 0.5 µg/mL (≈ 0.933 µM). Also, the minimum inhibitory concentration (MIC) with Staphylococcus aureus [1] (setting [4]) worked out at 1 µg/mL (≈ 1.87 µM). The inhibition at 30 µM with Staphylococcus aureus [3] was 93%. In the test on Staphylococcus aureus [2], this compound gave an IC50 of 40 µM and an inhibition at 100 µM of 96%.
Turning to `CN(c1ccc(Cl)cc1)S(=O)(=O)c1ccc(C(=O)Nc2ccc(F)cc2C(=O)O)cc1`, the minimum inhibitory concentration (MIC) in the test with Staphylococcus aureus [1] (setting [4]) was greater than 128 µg/mL. Moreover, in the test with Staphylococcus aureus [2], the inhibition at 100 µM is 30%.
The like results for `O=C(Nc1ccc(Br)cc1C(=O)O)c1ccc(S(=O)(=O)Nc2cccc(OCc3ccccc3)c2)cc1` were, in that order, 8 µg/mL (≈ 13.8 µM) and 75%.
As to `O=C(Nc1ccc(Br)cc1C(=O)O)c1ccc(S(=O)(=O)N2CCC(Cc3ccccc3)CC2)cc1`, the minimum inhibitory concentration (MIC) with Staphylococcus aureus [1] (setting [4]) is 16 µg/mL (≈ 28.7 µM). In the test with Staphylococcus aureus [2], this compound had a half-inhibitory concentration (IC50) of 28 µM and an inhibition at 100 µM of 98%.
Broadly, the Inhibition is how much of the control response was suppressed. A high value points to strong suppression. Turning to `CN(c1ccc(Cl)cc1)S(=O)(=O)c1ccc(C(=O)Nc2ccc(Br)cc2C(=O)O)cc1`, the figures for the minimum inhibitory concentration (MIC) against Staphylococcus aureus [1] and in the test with Staphylococcus aureus [1] (setting [4]) were 16 µg/mL (≈ 30.5 µM) and 8 µg/mL (≈ 15.3 µM), respectively. The compound further displayed an Inhibition in the test on Staphylococcus aureus [2] of 80%. The inhibition at 100 µM with Staphylococcus aureus [2] was 75%.
Consider `O=C(Nc1ccc(Br)cc1C(=O)O)c1ccc(S(=O)(=O)N2CCCCC2)cc1`, for which, in the test with Staphylococcus aureus [1] (setting [4]), the MIC turned out to be 16 µg/mL (≈ 34.2 µM). Moreover, the Inhibition with Staphylococcus aureus [2] was 35%.
`COCCN(CCOC)S(=O)(=O)c1ccc(C(=O)Nc2ccc(Br)cc2C(=O)O)cc1`: the minimum inhibitory concentration (MIC) in the test with Staphylococcus aureus [1] (setting [4]) was found to be 32 µg/mL (≈ 62.1 µM). Besides, the inhibition at 100 µM in the test on Staphylococcus aureus [2] worked out at 10%.
`O=C(Nc1ccc(Br)cc1C(=O)O)c1ccc(S(=O)(=O)N2CCC(c3ccccc3)CC2)cc1`: the MIC in the test on Staphylococcus aureus [1] (setting [4]) is 8 µg/mL (≈ 14.7 µM). In the test with Staphylococcus aureus [2], this compound returned an IC50 of 55 µM and an inhibition at 100 µM of 96%.
As to `Cc1ccc(C(=O)Nc2ccc(Br)cc2C(=O)O)cc1S(=O)(=O)NC1Cc2ccccc2C1`, the MIC with Staphylococcus aureus [1] (setting [4]) was found to be 0.25 µg/mL (≈ 0.472 µM). The same compound displayed an inhibition at 30 µM in the test with Staphylococcus aureus [3] of 20%.
For `O=C(Nc1ccc(Br)cc1C(=O)O)c1cc(S(=O)(=O)NC2Cc3ccccc3C2)ccc1Br`, the MIC in the test on Staphylococcus aureus [1] (setting [4]) was determined as 0.25 µg/mL (≈ 0.421 µM). Also, in the test with Staphylococcus aureus [3], 30 µM produced 30% inhibition.
Regarding `O=C(Nc1ccc(Br)cc1C(=O)O)c1ccc(S(=O)(=O)N2CC3CCCC(C3)C2)cc1`, in the test with Staphylococcus aureus [1] (setting [4]), the minimal inhibitory concentration (MIC) amounted to 4 µg/mL (≈ 7.88 µM). In the test with Staphylococcus aureus [2], the concentration for half-maximal inhibition (IC50) worked out at 60 µM and the inhibition at 100 µM is 88%.
Consider `CN(c1ccc(Cl)cc1)S(=O)(=O)c1ccc(C(=O)Nc2cc(Cl)ccc2C(=O)O)cc1`, for which the minimal inhibitory concentration (MIC) in the test on Staphylococcus aureus [1] (setting [4]) was 64 µg/mL (≈ 134 µM). The compound also came in with an inhibition at 100 µM with Staphylococcus aureus [2] of 47%.
Regarding `O=C(Nc1ccc(Br)cc1C(=O)O)c1cc(S(=O)(=O)Nc2ccc3c(c2)OCCO3)ccc1Br`, in the test with Staphylococcus aureus [1] (setting [4]), the minimal inhibitory concentration (MIC) stood at 0.5 µg/mL (≈ 0.817 µM). The inhibition at 30 µM with Staphylococcus aureus [3] was 15%.
In the case of `CN(c1ccc(Cl)cc1)S(=O)(=O)c1ccc(C(=O)Nc2ccc(Cl)cc2C(=O)O)cc1`, the MIC in the test on Staphylococcus aureus [1] (setting [4]) was found to be 16 µg/mL (≈ 33.4 µM). This compound also yielded an inhibition at 100 µM with Staphylococcus aureus [2] of 85%.
Consider `COc1cccc(NS(=O)(=O)c2ccc(C(=O)Nc3ccc(Br)cc3C(=O)O)cc2)c1`, for which the MIC in the test with Staphylococcus aureus [1] (setting [4]) turned out to be 16 µg/mL (≈ 31.7 µM). In the test on Staphylococcus aureus [2], this compound had an inhibition at 100 µM of 20%.
The like results for `CCCN(c1ccccc1)S(=O)(=O)c1ccc(C(=O)Nc2ccc(Cl)cc2C(=O)O)cc1` were, in that order, 32 µg/mL (≈ 67.7 µM) and 50%.
The like results for `O=C(Nc1ccc(Br)cc1C(=O)O)c1ccc(S(=O)(=O)N2CC3CCC2CC3)cc1` were, in that order, 8 µg/mL (≈ 16.2 µM) and 57%.
The like results for `CCCN(CCC)S(=O)(=O)c1ccc(C(=O)Nc2cc3ccccc3cc2O)cc1` were, in that order, greater than 128 µg/mL and 10%.
Consider `CN(c1ccc(Cl)cc1)S(=O)(=O)c1ccc(C(=O)Nc2ccc(Cl)c(C(=O)O)c2)cc1`, for which the MIC in the test with Staphylococcus aureus [1] (setting [4]) is greater than 128 µg/mL. This compound registered an inhibition at 100 µM with Staphylococcus aureus [2] of 10%.
As for `COc1ccc(N(C)S(=O)(=O)c2ccc(C(=O)Nc3ccc(Br)cc3C(=O)O)cc2)cc1`, in the test with Staphylococcus aureus [1] (setting [4]), the minimal inhibitory concentration (MIC) worked out at 32 µg/mL (≈ 61.6 µM). The compound also returned an inhibition at 100 µM with Staphylococcus aureus [2] of 50%.
For `COc1ccc(NC(=O)c2ccc(S(=O)(=O)Nc3cccc(C(F)(F)F)c3)cc2)c(C(=O)O)c1`, the MIC with Staphylococcus aureus [1] (setting [4]) is greater than 128 µg/mL. The compound further displayed an inhibition at 100 µM in the test on Staphylococcus aureus [2] of 35%.
The like results for `O=C(Nc1ccc(Br)cc1C(=O)O)c1ccc(S(=O)(=O)N2CCC[C@@H]2CO)cc1` were, in that order, greater than 128 µg/mL and 19%.
The like results for `CCCN(CCC)S(=O)(=O)c1ccc(C(=O)Nc2cc3ccccc3cc2C(=O)O)cc1` were, in that order, 64 µg/mL (≈ 141 µM) and 30%.
In the case of `O=C(Nc1ccc(Br)cc1C(=O)O)c1ccc(S(=O)(=O)N2CCc3cc(Cl)ccc32)cc1`, the MIC in the test with Staphylococcus aureus [1] (setting [4]) came to 1 µg/mL (≈ 1.87 µM). Besides, in the test with Staphylococcus aureus [2], the IC50 amounted to 80 µM and the inhibition at 100 µM amounted to 71%.
For `COC(=O)c1cc(Br)ccc1NC(=O)c1ccc(S(=O)(=O)Nc2cccc(OCc3ccccc3)c2)cc1`, in the test on Staphylococcus aureus [1] (setting [4]), the MIC is greater than 128 µg/mL. In the test on Staphylococcus aureus [2], the inhibition at 100 µM came to 4%.
`CCCN(c1ccccc1)S(=O)(=O)c1ccc(C(=O)Nc2ccc(C)cc2C(=O)O)cc1`: the MIC with Staphylococcus aureus [1] (setting [4]) worked out at 128 µg/mL (≈ 283 µM). Besides, in the test on Staphylococcus aureus [2], the inhibition at 100 µM was found to be 34%.
The like results for `O=C(Nc1ccc(Br)cc1C(=O)O)c1ccc(S(=O)(=O)N2Cc3ccccc3C2)cc1` were, in that order, 4 µg/mL (≈ 7.98 µM) and 77%.
The like results for `O=C(Nc1ccc(Br)cc1C(=O)O)c1ccc(S(=O)(=O)Nc2ccc(Cl)cc2)cc1` were, in that order, 16 µg/mL (≈ 31.4 µM) and 45%.
With `O=C(Nc1ccc(Br)cc1C(=O)O)c1ccc(S(=O)(=O)N2CCCC23CCCCC3)cc1`, the minimum inhibitory concentration (MIC) in the test with Staphylococcus aureus [1] (setting [4]) came to 4 µg/mL (≈ 7.67 µM). In the test on Staphylococcus aureus [2], this compound had an IC50 of 60 µM and an inhibition at 100 µM of 90%.
In the case of `CCCN(CCC)S(=O)(=O)c1ccc(C(=O)Nc2c(OC)cc(OC)cc2C(=O)O)cc1`, the MIC in the test with Staphylococcus aureus [1] (setting [4]) was greater than 128 µg/mL. This compound displayed an inhibition at 100 µM with Staphylococcus aureus [2] of 0%.
The like results for `Cc1cc(Br)ccc1NC(=O)c1ccc(S(=O)(=O)N(C)c2ccc(Cl)cc2)cc1` were, in that order, greater than 128 µg/mL and 12%.
With `O=C(Nc1ccc(Br)cc1C(=O)O)c1ccc(S(=O)(=O)N2CCc3ccccc3C2)cc1`, in the test on Staphylococcus aureus [1] (setting [4]), the MIC was 8 µg/mL (≈ 15.5 µM). Besides, in the test with Staphylococcus aureus [2], the IC50 was found to be 60 µM and at 100 µM the inhibition was 84%.
`O=C(Nc1ccc(Br)cc1C(=O)O)c1ccc(S(=O)(=O)Nc2cccc(C(F)(F)F)c2)cc1`: in the test on Staphylococcus aureus [1] (setting [4]), the minimal inhibitory concentration (MIC) came to 8 µg/mL (≈ 14.7 µM). In the test with Staphylococcus aureus [2], this compound gave an inhibition at 100 µM of 65%.
`Cl.O=C(Nc1ccc(Br)cc1C(=O)O)c1ccc(S(=O)(=O)N2CCCCC2)cc1`: in the test with Staphylococcus aureus [1] (setting [4]), the MIC was determined as 16 µg/mL. The inhibition at 100 µM in the test with Staphylococcus aureus [2] is 34%.
